Experiment: molar heat capacity at constant pressure
Conditions: 101.33 kPa, Crystal 1, DSC

O=[N+]([O-])[O-].O=[N+]([O-])[O-].[Ca+2] [calcium nitrate]
Conditions	molar heat capacity at constant pressure [J/K/mol]
460.78 K	169.24
461 K	167.84
461.78 K	169.39
462 K	167.76
462.78 K	169.54
463 K	167.86
463.78 K	169.69
464 K	168.02
464.78 K	169.84
465 K	168.08
465.78 K	169.99
466 K	168.25
466.78 K	170.14
467 K	168.45
467.78 K	170.28
468 K	168.56
468.78 K	170.43
469 K	168.64
469.78 K	170.57
470 K	168.78
470.78 K	170.71
471 K	169.08
471.78 K	170.84
472 K	169
472.78 K	170.98
473 K	169.04
473.78 K	171.11
474 K	169.16
474.78 K	171.24
475 K	169.1
475.78 K	171.37
476 K	169.34
476.78 K	171.5
477 K	169.7
477.78 K	171.63
478 K	169.85
478.78 K	171.76
479 K	169.98
479.78 K	171.88
480 K	170.3
480.78 K	172.01
481 K	170.38
481.78 K	172.14
482 K	170.53
482.78 K	172.27
483 K	170.78
483.78 K	172.4
484 K	171.03
484.78 K	172.53
485 K	171.06
485.78 K	172.66
486 K	171.2
486.78 K	172.79
487 K	171.33
487.78 K	172.92
488 K	171.57
488.78 K	173.05
489 K	171.63
489.78 K	173.19
490 K	171.74
490.78 K	173.32
491 K	171.84
491.78 K	173.45
492 K	172.06
492.78 K	173.58
493 K	172.18
493.78 K	173.7
494 K	172.32
494.78 K	173.83
495 K	172.25
495.78 K	173.96
496 K	172.55
496.78 K	174.08
497 K	172.8
497.78 K	174.21
498 K	172.81
498.78 K	174.34
499 K	172.68
499.78 K	174.47
500 K	172.79
500.78 K	174.6
501 K	172.74
501.78 K	174.72
502 K	172.79
502.78 K	174.85
503 K	172.93
503.78 K	174.98
504 K	173.02
504.78 K	175.1
505 K	173.14
505.78 K	175.23
506 K	173.3
506.78 K	175.35
507 K	173.5
507.78 K	175.47
508 K	173.86
508.78 K	175.6
509 K	173.88
509.78 K	175.72
510 K	173.92
510.78 K	175.84
511 K	174.13
511.78 K	175.96
512 K	174.3
512.78 K	176.08
513 K	174.4
513.78 K	176.2
514 K	174.42
514.78 K	176.32
515 K	174.62
515.78 K	176.44
516 K	174.84
516.78 K	176.57
517 K	175.25
517.78 K	176.69
518 K	175.28
518.78 K	176.81
519 K	175.29
519.78 K	176.93
520 K	175.21
520.78 K	177.05
521 K	175.26
521.78 K	177.17
522 K	175.43
522.78 K	177.29
523 K	175.67
523.78 K	177.42
524 K	175.75
524.78 K	177.54
525 K	175.8
525.78 K	177.66
526 K	175.94
526.78 K	177.78
527 K	175.82
527.78 K	177.91
528 K	176.06
528.78 K	178.03
529 K	176.19
529.78 K	178.15
530 K	176.36
530.78 K	178.27
531 K	176.31
531.78 K	178.39
532 K	176.49
532.78 K	178.51
533 K	176.66
533.78 K	178.64
534 K	176.93
534.78 K	178.76
535 K	177.11
535.78 K	178.88
536 K	177.34
536.78 K	179
537 K	177.34
537.78 K	179.12
538 K	177.42
538.78 K	179.24
539 K	177.46
539.78 K	179.36
540 K	177.51
540.78 K	179.48
541 K	177.41
541.78 K	179.6
542 K	177.7
542.78 K	179.71
543 K	177.98
543.78 K	179.83
544 K	178.12
544.78 K	179.95
545 K	178.25
545.78 K	180.07
546 K	178.24
546.78 K	180.18
547 K	178.5
547.78 K	180.3
548 K	178.69
548.78 K	180.41
549 K	178.65
549.78 K	180.52
550 K	178.93
550.78 K	180.64
551 K	179.14
551.78 K	180.75
552 K	179.27
552.78 K	180.86
553 K	179.3
553.78 K	180.97
554 K	179.36
554.78 K	181.08
555 K	179.38
555.78 K	181.19
556 K	179.42
556.78 K	181.3
557 K	179.62
557.78 K	181.42
558 K	179.86
558.78 K	181.53
559 K	179.79
559.78 K	181.64
560 K	180.01
560.78 K	181.75
561 K	180.29
561.78 K	181.86
562 K	180.36
562.78 K	181.98
563 K	180.34
563.78 K	182.09
564 K	180.52
564.78 K	182.2
565 K	180.58
565.78 K	182.32
566 K	180.69
566.78 K	182.43
567 K	180.68
567.78 K	182.55
568 K	180.69
568.78 K	182.66
569 K	180.72
569.78 K	182.78
570 K	180.95
570.78 K	182.89
571 K	181.01
571.78 K	183
572 K	181.17
572.78 K	183.12
573 K	181.26
573.78 K	183.23
574 K	181.32
574.78 K	183.35
575 K	181.37
575.78 K	183.47
576 K	181.6
576.78 K	183.59
577 K	181.65
577.78 K	183.7
578 K	181.77
578.78 K	183.82
579 K	181.78
579.78 K	183.94
580 K	181.89
580.78 K	184.05
581 K	181.94
581.78 K	184.16
582 K	182.11
582.78 K	184.27
583 K	182.13
583.78 K	184.38
584 K	182.17
584.78 K	184.49
585 K	182.35
585.78 K	184.59
586 K	182.41
586.78 K	184.69
587 K	182.46
587.78 K	184.79
588 K	182.63

From the NIST ThermoML archive (doi:10.1016/j.jct.2019.03.007)
